# From US5506221A, “Contignasterol, and related 3-alpha hydroxy-6-alpha hydroxy-7-beta hydroxy-15-keto-14-beta steroids useful as anti-inflammatory and anti-thrombosis agents” (University of British Columbia, priority 1994, dated 1996)
# “Also recorded” adds a separate entry of the source.
# Experiments:
# platelets [1] = assay: platelet aggregation in response to collagen; type: cell-based
# Description: (§1) PAF is a local mediator of thrombosis. Similarly, collagen exposure of vessel walls leads to the formation of […] clot in the vessels. Therefore, prevention of the formation of blood clots has direct implication in the treatment of thrombosis and associated cardiovascular diseases.
# (§2) PAF and collagen were used at their maximal concentrations to which induced 100% aggregation of platelets.
# human basophils = assay: histamine release from human basophils/leukocytes challenged with anti-human IgE; type: cell-based
# Procedure: A major test to confirm the anti-allergic property of contignasterols is the histamine release from human basophils. […] We used […] human blood leukocytes from allergic (allergy to grass pollen) individuals and prepared leukocytes. The leukocytes were then challenged with anti-human IgE for the release of histamine. The leukocytes were either exposed to 50 μg/ml of contignasterol or saline alone (control). The amount of histamine released from the leukocytes was measured using radioenzymatic assay.
# tracheal tissues = assay: ovalbumin (OA)-induced contraction of tracheal tissues from sensitized guinea pigs; type: cell-based
# Description: We have used the contignasterol as defined in paragraph one of the Summary to block bronchoconstriction induced in guinea pigs. Guinea pigs were sensitized to ovalbumine (OA) that can serve as an antigen. The trachea from these animals after exposure to the antigen (OA) contracted in a similar manner as to in vivo situation.
# platelets [2] = assay: platelet aggregation in response to PAF; type: cell-based
# Description: as §1, §2
# [3] = tested on: allergeninduced challenge; assay: relative potencies of isomers of contignasterol against allergen-induced challenge; conditions: for % Inhibition: allergen-induced challenge; for inhibition: concentration not given
# Description: Table 4 illustrates the relative potencies of different isomers of contignasterol against allergeninduced challenge.
# rat mast cells = conditions: induced by anti-IgE; cited from earlier work
compound,measurement,setting,value
"CC(C)C1CC(O)OC([C@@H](C)[C@H]2CC(=O)[C@@H]3[C@@H]4[C@@H](O)[C@H](O)[C@H]5[C@@H](O)[C@H](O)CC[C@]5(C)[C@H]4CC[C@]23C)C1 (stereo partly shown) [Compound 1, contignasterol]",activity at 5 µg/mL,"platelets [1]; Platelet, contignasterol 5 μg/ml, collagen at maximal concentration, read-out: Aggregation (% of Control), Collagen",70%
same,activity at 30 µg/mL,"platelets [1]; Platelet, contignasterol 30 μg/ml, collagen at maximal concentration, read-out: Aggregation (% of Control), Collagen",0%
same,activity at 50 µg/mL,"platelets [1]; Platelet, contignasterol 50 μg/ml, collagen at maximal concentration, read-out: Aggregation (% of Control), Collagen",0%
same,"inhibition of platelet aggregation caused by collagen, in words",platelets [1]; collagen,inhibited aggregation of platelets; also recorded: inhibits platelet aggregation
same,"inhibition of histamine release from human basophils, in words",human basophils; basophils present in the blood,inhibits histamine release
same,Histamine Release (% of Total),"human basophils; contignasterol 50 μg/ml, challenge with anti-IgE, control (no drug) 36.4, basal release 9.8",19.0 % of Total
same,Contraction (% of Maximal),"tracheal tissues; contignasterol 1 μg/ml, ovalbumine 0.001 μg/ml, control 6.6",0.00 % of Maximal
same,Contraction (% of Maximal),"tracheal tissues; contignasterol 1 μg/ml, ovalbumine 0.01 μg/ml, control 12",-7.7 % of Maximal
same,Contraction (% of Maximal),"tracheal tissues; contignasterol 1 μg/ml, ovalbumine 0.1 μg/ml, control 28.6",-8.5 % of Maximal
same,Contraction (% of Maximal),"tracheal tissues; contignasterol 1 μg/ml, ovalbumine 1 μg/ml, control 34.0",27.5 % of Maximal
same,Contraction (% of Maximal),"tracheal tissues; contignasterol 1 μg/ml, ovalbumine 10 μg/ml, control 46.0",30 % of Maximal
same,Contraction (% of Maximal),"tracheal tissues; contignasterol 1 μg/ml, ovalbumine 100 μg/ml, control 55.7",39 % of Maximal
same,Contraction (% of Maximal),"tracheal tissues; contignasterol 1 μg/ml, ovalbumine 300 μg/ml, control 56",39.7 % of Maximal
same,Contraction (% of Maximal),"tracheal tissues; contignasterol 10 μg/ml, ovalbumine 0.001 μg/ml, control 6.6",0.00 % of Maximal
same,Contraction (% of Maximal),"tracheal tissues; contignasterol 10 μg/ml, ovalbumine 0.01 μg/ml, control 12",-8.0 % of Maximal
same,Contraction (% of Maximal),"tracheal tissues; contignasterol 10 μg/ml, ovalbumine 0.1 μg/ml, control 28.6",-8.0 % of Maximal
same,Contraction (% of Maximal),"tracheal tissues; contignasterol 10 μg/ml, ovalbumine 1 μg/ml, control 34.0",6.0 % of Maximal
same,Contraction (% of Maximal),"tracheal tissues; contignasterol 10 μg/ml, ovalbumine 10 μg/ml, control 46.0",16.0 % of Maximal
same,Contraction (% of Maximal),"tracheal tissues; contignasterol 10 μg/ml, ovalbumine 100 μg/ml, control 55.7",16.6 % of Maximal
same,Contraction (% of Maximal),"tracheal tissues; contignasterol 10 μg/ml, ovalbumine 300 μg/ml, control 56",29.6 % of Maximal
same,Contraction (% of Maximal),"tracheal tissues; contignasterol 50 μg/ml, ovalbumine 0.001 μg/ml, control 6.6",0.00 % of Maximal
same,Contraction (% of Maximal),"tracheal tissues; contignasterol 50 μg/ml, ovalbumine 0.01 μg/ml, control 12",0.0 % of Maximal
same,Contraction (% of Maximal),"tracheal tissues; contignasterol 50 μg/ml, ovalbumine 0.1 μg/ml, control 28.6",0.0 % of Maximal
same,Contraction (% of Maximal),"tracheal tissues; contignasterol 50 μg/ml, ovalbumine 1 μg/ml, control 34.0",5.5 % of Maximal
same,Contraction (% of Maximal),"tracheal tissues; contignasterol 50 μg/ml, ovalbumine 10 μg/ml, control 46.0",11.1 % of Maximal
same,Contraction (% of Maximal),"tracheal tissues; contignasterol 50 μg/ml, ovalbumine 100 μg/ml, control 55.7",16.6 % of Maximal
same,Contraction (% of Maximal),"tracheal tissues; contignasterol 50 μg/ml, ovalbumine 300 μg/ml, control 56",22 % of Maximal
same,"effect on antigen-induced tracheal/airway smooth muscle contraction, in words","tracheal tissues; tissue pretreated, exposed to antigen (OA)",did not significantly contract; also recorded: inhibited airway smooth muscle contraction
same,"inhibition of platelet aggregation caused by PAF, in words",platelets [2]; PAF,inhibited aggregation of platelets; also recorded: inhibits platelet aggregation
same,activity at 5 µg/mL,"platelets [2]; Platelet, contignasterol 5 μg/ml, PAF at maximal concentration, read-out: Aggregation (% of Control), PAF",90%
same,activity at 10 µg/mL,"platelets [2]; Platelet, contignasterol 10 μg/ml, PAF at maximal concentration, read-out: Aggregation (% of Control), PAF",56%
same,activity at 20 µg/mL,"platelets [2]; Platelet, contignasterol 20 μg/ml, PAF at maximal concentration, read-out: Aggregation (% of Control), PAF",44%
same,activity at 30 µg/mL,"platelets [2]; Platelet, contignasterol 30 μg/ml, PAF at maximal concentration, read-out: Aggregation (% of Control), PAF",28%
same,activity at 50 µg/mL,"platelets [2]; Platelet, contignasterol 50 μg/ml, PAF at maximal concentration, read-out: Aggregation (% of Control), PAF",0%
same,% Inhibition,[3]; 10 μM,43%
same,inhibition,[3],47%
"CC(C)C1CC(O)OC([C@@H](C)[C@H]2CC(=O)[C@H]3[C@@H]4[C@@H](O)[C@H](O)[C@H]5[C@@H](O)[C@H](O)CC[C@]5(C)[C@H]4CC[C@]23C)C1 (stereo partly shown) [Compound 2, 14-epicontignasterol]",% Inhibition,[3]; 10 μM,25%
same,inhibition,[3],25%
COC1CC(C(C)C)CC([C@@H](C)[C@H]2CC(=O)[C@@H]3[C@@H]4[C@@H](O)[C@H](O)[C@H]5[C@@H](O)[C@H](O)CC[C@]5(C)[C@H]4CC[C@]23C)O1 (stereo partly shown) [Compound 3],% Inhibition,[3]; 10 μM,12%
same,"change in potency on conversion of hemiacetal to methyl acetal, in words","[3]; 10 μM, methyl acetal (3) versus contignasterol (1)",significant decrease in the potency
same,inhibition,[3],12%
"CC(C)C[C@]1(O)C[C@@H](C)[C@H]2[C@@H]1C(=O)[C@@H]1[C@@H]3[C@@H](O)[C@H](O)[C@H]4C[C@H](O)CC[C@]4(C)[C@H]3CC[C@]21C [xestobergsterol A, 23S-16β, 23-cyclo-3α,6α,7β,23-tetrahydroxy-5α,14β-cholestan-15-one]","inhibition of histamine release, in words",rat mast cells,potent inhibitors of histamine release
"CC(C)C[C@]1(O)C[C@@H](C)[C@H]2[C@@H]1C(=O)[C@@H]1[C@@H]3[C@@H](O)[C@H](O)[C@H]4C[C@H](O)[C@@H](O)[C@@H](O)[C@]4(C)[C@H]3CC[C@]21C [xestobergsterol B, 23S-16β,23-cyclo-1β,2β,3α,6α,7β,23-hexahydroxy-5α,14β-cholestan-15-one]","inhibition of histamine release, in words",rat mast cells,potent inhibitors of histamine release
